# US12698474B2, “B-cell cultivation method” (priority 2017, dated 2026)
# Tested on: B-cells obtained from a rabbit immunized with human serum albumin (HSA)
# Assay: Co-cultivation of single deposited B-cells with EL-4 B5 feeder cells, detection of antigen-specific (anti-HSA) IgG by ELISA;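 as to HSA+ wells [% IgG+]: relative ranking scale running from o (lowest) to +++++ (highest)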;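 as to HSA+ wells [% total]: relative ranking scale running from o (lowest) to +++++ (highest)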
# Assay type: cell-based
# Description: In more detail, NZW rabbits, 12-16 weeks old, were immunized with 400 μg recombinant human serum albumin protein (HSA; CAS RN 70024-90-7; Sigma), emulsified with complete Freund's adjuvant, at day 0 by intradermal application, followed by 200 μg HSA emulsified with complete or incomplete Freund's adjuvant at weeks 1, 2, 6, 10 and 23, by alternating intramuscular and subcutaneous injections.
# Generally, antibodies produced by single deposited and co-cultivated B-cells or from B-cells obtained from an immunized experimental animal can be characterized with respect to specific antigen binding. The ELISA was performed at room temperature and the ELISA-solution was incubated between the individual steps on a shaker at 20×g. In the first step the antigen was bound to the wells of a 96-well multi well plate. If the antigen was a protein it had been diluted in coating buffer and applied directly to the plate. Peptide antigens were bound via the specific binding pair biotin/streptavidin. The wells of the multi well plate can be already coated with soluble CroteinC (CrC) by the manufacturer. If not, the wells were incubated after the immobilization of the antigen with 200 μl blocking buffer. After the incubation with 100 μl antigen solution per well (pre-coated multi well plate) or 200 μl blocking buffer, respectively, non-bound antigen or blocking buffer was removed by washing with wash buffer. The diluted B-cell supernatants were added in a volume of 100 μl per well and incubated. After the incubation the wells were washed. Afterwards the detection antibody was added in a volume of 100 μl per well. The antibody can be either conjugated to horseradish peroxidase or labeled with biotin. The detection antibody was determined with a streptavidin-horseradish peroxidase conjugate. After the incubation the multi well plate was washed and afterwards 50 μl of a substrate solution containing 3,3′,5,5′ tetramethyl benzidine (TMB) were added per well and incubated for a period as given in Table X. The enzymatic reaction was stopped by the addition of 50 μl sulfuric acid and the optical density was determined at 450 nm and 680 nm with a photometer (Rainbow Thermo ELISA Reader) and the Xread plus-software.
# Specifically, the assay was performed at room temperature (RT) on 384-well Maxisorp microtiter plates (Thermo Scientific) with PBS (phosphate buffered saline) buffer supplemented with 0.5% Gelatine and 0.025% Tween V-20. The plates were coated with 0.5 μg/ml of human serum albumin (HSA, Sigma-Aldrich) for at least 2 hours to overnight. After washing (3×) with PBST (PBS with 0.1% Tween®-20) buffer the wells were blocked with PBS with 0.5% Gelatine and 0.1% Tween®-20. Again, the plates were washed 3× and afterwards dilutions of B-cell supernatants were added. After an incubation of 60 min and 3 washing steps with PBST a 1:4000 dilution of a HRP-conjugated anti-rabbit IgG antibody (Amersham) was transferred to the wells and incubated for 60 min. Finally, the plates were repeatedly washed (6×) with PBST and developed with BM Blue® HRP substrate solution for 30 min. Absorbance was measured at 392-405 nm.
# Single cell sorted B-cells were cultured in 96-well plates with 200 μl/well EL-4 B5 medium with Pansorbin Cells (SAC) (Calbiochem (Merck), Darmstadt, Deutschland), EL-4 B5 cells (5×10^4/well) and rabbit thymocyte supernatant (TSN) or cytokine mix (CM) with PMA, respectively, for 7 days at 37° C. in an atmosphere of 5% CO2 in the incubator. B-cell culture supernatants were removed for screening and the cells harvested immediately for variable region gene cloning or frozen at −80° C. in 100 μl RLT buffer (Qiagen, Hilden, Germany).
smiles,measurement,setting,value
"CCCCCCCCCCCCCC(=O)O[C@@H]1[C@@H](C)[C@@]2(O)[C@@H](C=C(CO)C[C@]3(O)C(=O)C(C)=C[C@@H]23)[C@@H]2C(C)(C)[C@]12OC(C)=O [PMA, (1aR,1bS,4aR,7aS,7bS,8R,9R,9aS)-9a-(acetyloxy)-4a,7b-dihydroxy-3-(hydroxymethyl)-1,1,6,8-tetramethyl-5-oxo-1a,1b,4,4a,5,7a,7b,8,9,9a-decahydro-H-cyclopropa[3,4]benzo[1,2-e]azulen-9-yl myristate]",HSA+ wells [% IgG+],"PMA 0.002 ng/ml, 0.1×CM",++
same,HSA+ wells [% total],"PMA 0.002 ng/ml, 0.1×CM",+
same,HSA+ wells [% IgG+],"PMA 0.011 ng/ml, 0.032×CM",+++++
same,HSA+ wells [% total],"PMA 0.011 ng/ml, 0.032×CM",+++
same,HSA+ wells [% IgG+],"PMA 0.011 ng/ml, 0.1×CM",+++++
same,HSA+ wells [% total],"PMA 0.011 ng/ml, 0.1×CM",+++
same,HSA+ wells [% IgG+],"PMA 0.054 ng/ml, 0.1×CM",+++
same,HSA+ wells [% total],"PMA 0.054 ng/ml, 0.1×CM",+++
same,Number of anti-HSA antibody positive wells [% of IgG positive wells],"PMA 0.095 ng/ml, CM 1x",62.5 % of IgG positive wells
same,Number of anti-HSA antibody positive wells [% of total],"PMA 0.095 ng/ml, CM 1x",23.8 % of total
same,HSA+ wells [% IgG+],"PMA 0.127 ng/ml, 0.032×CM",++
same,HSA+ wells [% IgG+],"PMA 0.127 ng/ml, 0.1×CM",++
same,HSA+ wells [% total],"PMA 0.127 ng/ml, 0.1×CM",+
same,HSA+ wells [% IgG+],"PMA 0.225 ng/ml, 0.1×CM",++++
same,HSA+ wells [% total],"PMA 0.225 ng/ml, 0.1×CM",+++++
same,HSA+ wells [% IgG+],"PMA 0.3 ng/ml, 0.032×CM",+++
same,HSA+ wells [% total],"PMA 0.3 ng/ml, 0.032×CM",++++
same,Number of anti-HSA antibody positive wells [% of IgG positive wells],"PMA 0.3 ng/ml, CM 0.01x",41.4 % of IgG positive wells
same,Number of anti-HSA antibody positive wells [% of total],"PMA 0.3 ng/ml, CM 0.01x",28.6 % of total
same,Number of anti-HSA antibody positive wells [% of IgG positive wells],"PMA 0.3 ng/ml, CM 0.032x",39.0 % of IgG positive wells
same,Number of anti-HSA antibody positive wells [% of total],"PMA 0.3 ng/ml, CM 0.032x",27.4 % of total
same,Number of anti-HSA antibody positive wells [% of IgG positive wells],"PMA 0.3 ng/ml, CM 0.1x",42.1 % of IgG positive wells
same,Number of anti-HSA antibody positive wells [% of total],"PMA 0.3 ng/ml, CM 0.1x",28.6 % of total
same,Number of anti-HSA antibody positive wells [% of IgG positive wells],"PMA 0.3 ng/ml, CM 0.32x",39.6 % of IgG positive wells
same,Number of anti-HSA antibody positive wells [% of total],"PMA 0.3 ng/ml, CM 0.32x",22.6 % of total
same,Number of anti-HSA antibody positive wells [% of IgG positive wells],"PMA 0.3 ng/ml, CM 1x",20.0 % of IgG positive wells
same,Number of anti-HSA antibody positive wells [% of total],"PMA 0.3 ng/ml, CM 1x",3.6 % of total
same,HSA+ wells [% IgG+],"PMA 0.534 ng/ml, 0.032×CM",+++
same,HSA+ wells [% total],"PMA 0.534 ng/ml, 0.032×CM",++
same,HSA+ wells [% IgG+],"PMA 0.534 ng/ml, 0.1×CM",+++
same,HSA+ wells [% total],"PMA 0.534 ng/ml, 0.1×CM",+++
same,HSA+ wells [% IgG+],"PMA 0.535 ng/ml, without CM",+++++
same,HSA+ wells [% total],"PMA 0.535 ng/ml, without CM",+
same,HSA+ wells [% total],"PMA 0.712 ng/ml, 0.032×CM",+
same,HSA+ wells [% IgG+],"PMA 0.712 ng/ml, 0.1×CM",++++
same,HSA+ wells [% total],"PMA 0.712 ng/ml, 0.1×CM",+++
same,HSA+ wells [% IgG+],"PMA 0.949 ng/ml, 0.032×CM",+++
same,HSA+ wells [% total],"PMA 0.949 ng/ml, 0.032×CM",+++++
same,HSA+ wells [% IgG+],"PMA 0.949 ng/ml, 0.1×CM",+
same,Number of anti-HSA antibody positive wells [% of IgG positive wells],"PMA 0.95 ng/ml, CM 0x",66.7 % of IgG positive wells
same,Number of anti-HSA antibody positive wells [% of total],"PMA 0.95 ng/ml, CM 0x",19.0 % of total
same,Number of anti-HSA antibody positive wells [% of IgG positive wells],"PMA 0.95 ng/ml, CM 0.01x",39.7 % of IgG positive wells
same,Number of anti-HSA antibody positive wells [% of total],"PMA 0.95 ng/ml, CM 0.01x",27.4 % of total
same,Number of anti-HSA antibody positive wells [% of IgG positive wells],"PMA 0.95 ng/ml, CM 0.032x",45.6 % of IgG positive wells
same,Number of anti-HSA antibody positive wells [% of total],"PMA 0.95 ng/ml, CM 0.032x",31.0 % of total
same,Number of anti-HSA antibody positive wells [% of IgG positive wells],"PMA 0.95 ng/ml, CM 0.1x",54.8 % of IgG positive wells
same,Number of anti-HSA antibody positive wells [% of total],"PMA 0.95 ng/ml, CM 0.1x",27.4 % of total
same,Number of anti-HSA antibody positive wells [% of IgG positive wells],"PMA 0.95 ng/ml, CM 0.32x",30.0 % of IgG positive wells
same,Number of anti-HSA antibody positive wells [% of total],"PMA 0.95 ng/ml, CM 0.32x",7.1 % of total
same,Number of anti-HSA antibody positive wells [% of IgG positive wells],"PMA 0.95 ng/ml, CM 1x",42.9 % of IgG positive wells
same,Number of anti-HSA antibody positive wells [% of total],"PMA 0.95 ng/ml, CM 1x",3.6 % of total
same,HSA+ wells [% IgG+],"PMA 0.95 ng/ml, without CM",+++
same,HSA+ wells [% IgG+],"PMA 1.266 ng/ml, 0.032×CM",++++
same,HSA+ wells [% total],"PMA 1.266 ng/ml, 0.032×CM",+++++
same,HSA+ wells [% IgG+],"PMA 1.688 ng/ml, 0.032×CM",+
same,HSA+ wells [% total],"PMA 1.688 ng/ml, 0.032×CM",+++++
same,HSA+ wells [% IgG+],"PMA 1.688 ng/ml, without CM",+++++
same,HSA+ wells [% total],"PMA 1.688 ng/ml, without CM",+++++
same,HSA+ wells [% total],"PMA 2.25 ng/ml, 0.032×CM",++
same,HSA+ wells [% IgG+],"PMA 2.251 ng/ml, without CM",+++
same,HSA+ wells [% total],"PMA 2.251 ng/ml, without CM",+++++
same,Number of anti-HSA antibody positive wells [% of IgG positive wells],"PMA 3 ng/ml, CM 0.01x",48.3 % of IgG positive wells
same,Number of anti-HSA antibody positive wells [% of total],"PMA 3 ng/ml, CM 0.01x",33.3 % of total
same,Number of anti-HSA antibody positive wells [% of IgG positive wells],"PMA 3 ng/ml, CM 0.032x",47.5 % of IgG positive wells
same,Number of anti-HSA antibody positive wells [% of total],"PMA 3 ng/ml, CM 0.032x",34.5 % of total
same,Number of anti-HSA antibody positive wells [% of IgG positive wells],"PMA 3 ng/ml, CM 0.1x",20.0 % of IgG positive wells
same,Number of anti-HSA antibody positive wells [% of total],"PMA 3 ng/ml, CM 0.1x",7.1 % of total
same,Number of anti-HSA antibody positive wells [% of IgG positive wells],"PMA 3 ng/ml, CM 0.32x",27.3 % of IgG positive wells
same,Number of anti-HSA antibody positive wells [% of total],"PMA 3 ng/ml, CM 0.32x",3.6 % of total
same,Number of anti-HSA antibody positive wells [% of IgG positive wells],"PMA 3 ng/ml, CM 1x",45.5 % of IgG positive wells
same,Number of anti-HSA antibody positive wells [% of total],"PMA 3 ng/ml, CM 1x",6.0 % of total
same,HSA+ wells [% total],"PMA 3.999 ng/ml, without CM",+
same,HSA+ wells [% IgG+],"PMA 5.331 ng/ml, without CM",++
same,HSA+ wells [% total],"PMA 5.331 ng/ml, without CM",+++
same,HSA+ wells [% IgG+],"PMA 7.106 ng/ml, without CM",+
same,HSA+ wells [% total],"PMA 7.106 ng/ml, without CM",++++
